{"source": "patent US20240148821A1", "about": "“PHARMACEUTICAL USE OF CYCLIC PEPTIDE COMPOUND” (CHUGAI SEIYAKU KABUSHIKI KAISHA, priority 2021, published 2024)", "note": "Numbered stars: 1 amine (or outer) side, 2 acyl side, 3 side chain; on linkers, the order of the positions; unused ones are H or OH. Bridge positions count the residues as written; N and C are the ends. Square brackets hold non-standard residues; d marks the D form. Peptide text beside a SMILES is read from it. * marks the point of attachment. hPhe(3-Cl-4-CF3) = N[C@@H](CCc1ccc(C(F)(F)F)c(Cl)c1)C(=O)O; hPhe(3-F,4-CF3) = N[C@@H](CCc1ccc(C(F)(F)F)c(F)c1)C(=O)O; hPhe(3-OMe-4-CF3) = COc1cc(CC[C@H](N)C(=O)O)ccc1C(F)(F)F; NMePhe(4-Cl) = CN[C@@H](Cc1ccc(Cl)cc1)C(=O)O; X5 = CCN([C@@H](CC1CCCCC1)C(=O)[*:2])[*:1]; hPhe(4-Cl) = N[C@@H](CCc1ccc(Cl)cc1)C(=O)O; NMedβ3hAla = C[C@H](CC(=O)[*:2])N(C)[*:1]; NMeAla(cPent) = CN[C@@H](CC1CCCC1)C(=O)O; NMeGly(cPent) = CN[C@H](C(=O)O)C1CCCC1; NMeCha = CN[C@@H](CC1CCCCC1)C(=O)O; NMeChg = CN[C@H](C(=O)O)C1CCCCC1; N(CH2CH2)2CF2 = FC1(F)CCN(*)CC1; NMeD = CN[C@@H](CC(=O)O)C(=O)O; NMeL = CN[C@@H](CC(C)C)C(=O)O; NMeAc5c = CNC1(C(=O)O)CCCC1; NMeNva = CCC[C@H](NC)C(=O)O; NMeV = CN[C@H](C(=O)O)C(C)C; d(β3hA) = C[C@@H](N)CC(=O)O; NMeA = CN[C@@H](C)C(=O)O; Piperidide = C1CCN(*)CC1; Pyrrolidide = C1CCN(*)C1; Ac5c = NC1(C(=O)O)CCCC1; Aze = O=C(O)[C@@H]1CCN1; Aib = CC(C)(N)C(=O)O; Sar = CNCC(=O)O", "data": [{"biological_target": "protein-protein interaction between Kras and SOS1 (biotin-tagged human Kras loaded with GDP, His-tagged human SOS1) (Homo sapiens (Human), UniProt P01116, G12D)", "assay": "Protein-protein interaction inhibition between Kras and SOS1 (KrasG12D-SOS PPI) using AlphaScreen;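 further: kras produced in E. coli, Ni-coupled donor beads and streptavidin acceptor beads, excitation 680 nm with emission detected at 520–620 nm via singlet oxygen transfer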", "assay_type": "biochemical", "settings": "AlphaScreen; biotin-tagged human Kras loaded with GDP, His-tagged human SOS1; read-out: KRAS G12D-SOS PPI IC50", "units": {"IC50": "nM"}, "values": [{"smiles": "CC[C@H](C)[C@@H]1NC(=O)[C@H](CC(C)C)N(C)C(=O)C[C@@H](C)N(C)C(=O)[C@H](CC(C)C)NC(=O)C2(CCCC2)N(C)C(=O)[C@H](CC(C)C)NC(=O)[C@H](CCc2ccc(C(F)(F)F)c(F)c2)NC(=O)CN(C)C(=O)[C@H](CC2CCCCC2)N(C)C(=O)CN(C)C(=O)CN(C)C1=O", "note": "[Compound 2] (cyclo(I[Sar][Sar][NMeCha][Sar][hPhe(3-F,4-CF3)]L[NMeAc5c]L[NMedβ3hAla][NMeL]))", "IC50": 15}, {"smiles": "CC[C@H](C)[C@@H]1NC(=O)[C@H](CC(C)C)N(C)C(=O)C[C@@H](C(=O)N2CCCCC2)NC(=O)[C@H](C(C)C)N(C)C(=O)C2(CCCC2)NC(=O)[C@H](CC(=O)N2CCC(F)(F)CC2)N(C)C(=O)[C@H](CCc2ccc(C(F)(F)F)c(Cl)c2)NC(=O)CN(C)C(=O)[C@H](CC2CCCCC2)N(C)C(=O)CN(C)C(=O)CN(C)C1=O", "note": "[Compound 3] ([NMeL]I[Sar][Sar][NMeCha][Sar][hPhe(3-Cl-4-CF3)][NMeD](N(CH2CH2)2CF2)[Ac5c][NMeV]D-Piperidide; lactam N-11)", "IC50": 310}, {"smiles": "CC[C@H](C)[C@@H]1NC(=O)[C@H](CC2CCCC2)N(C)C(=O)C[C@@H](C)NC(=O)[C@H](C(C)C)N(C)C(=O)C2(CCCC2)NC(=O)[C@@H]2CCCN2C(=O)[C@H](CCc2ccc(C(F)(F)F)c(Cl)c2)NC(=O)CN(C)C(=O)[C@H](CC2CCCCC2)N(C)C(=O)[C@@H]2CCN2C(=O)[C@H](C)N(C)C1=O", "note": "[Compound 8] (cyclo([Ac5c][NMeV][d(β3hA)][NMeAla(cPent)]I[NMeA][Aze][NMeCha][Sar][hPhe(3-Cl-4-CF3)]P))", "IC50": 75}, {"smiles": "CC[C@H](C)[C@@H]1NC(=O)[C@H](C)N(C)C(=O)C[C@@H](C)NC(=O)[C@H](CC(C)C)N(C)C(=O)C(C)(C)NC(=O)[C@H](CC(C)C)N(C)C(=O)[C@H](CCc2ccc(Cl)cc2)NC(=O)CN(C)C(=O)[C@H](Cc2ccc(Cl)cc2)N(C)C(=O)CN(C)C(=O)CN(C)C1=O", "note": "[Compound 19] (cyclo([Aib][NMeL][d(β3hA)][NMeA]I[Sar][Sar][NMePhe(4-Cl)][Sar][hPhe(4-Cl)][NMeL]))", "IC50": 50}, {"smiles": "CC[C@H](C)[C@@H]1NC(=O)[C@H](CC(C)C)N(C)C(=O)C[C@@H](C(=O)N2CCCCC2)N(C)C(=O)[C@H](C(C)C)N(C)C(=O)C2(CCCC2)NC(=O)[C@@H]2CCCN2C(=O)[C@H](CCc2ccc(C(F)(F)F)c(Cl)c2)NC(=O)CN(C)C(=O)[C@H](CC2CCCCC2)N(CC)C(=O)[C@@H]2CCN2C(=O)[C@H](C)N(C)C1=O", "note": "[Compound 23] ([NMeL]I[NMeA][Aze][X5][Sar][hPhe(3-Cl-4-CF3)]P[Ac5c][NMeV][NMeD]-Piperidide; lactam N-11)", "IC50": 2.7}]}, {"tested_on": "Human pancreatic cancer cell line AsPC-1 (G12D mutation Kras)", "assay": "AsPC-1 cell growth inhibition (AsPC-1 CGI)", "assay_type": "cell-based", "settings": "read-out: AsPC-1 cell growth inhibition, 50% growth inhibitory concentration (IC50 value); 96 hours, CellTiter-Glo, values classified in ranges", "units": {"IC50": "nM"}, "procedure": "Test compounds were serially dilated with dimethyl sulfoxide, and 200 nL was then dispensed to a U-bottom 96-well plate using Labcyte Echo. […] The cell suspension was dispensed to a. plate containing a test compound at 100 μL per well and incubated at 37° C. in a 5% carbon dioxide gas incubator. 96 hours later, 80 μL of CellTiter-Glo (Promega) was added to each well and fluorescence was measured.", "values": [{"smiles": "CCC[C@H]1C(=O)N[C@@H]([C@@H](C)CC)C(=O)N(C)CC(=O)N(C)CC(=O)N(C)[C@@H](CC2CCCCC2)C(=O)N(C)CC(=O)N[C@@H](CCc2ccc(C(F)(F)F)c(Cl)c2)C(=O)N2CCC[C@H]2C(=O)NC2(CCCC2)C(=O)N(C)[C@@H](C2CCCCC2)C(=O)N(C)[C@H](C(=O)N2CCCC2)CC(=O)N1C", "note": "[Compound 2001] ([NMeNva]I[Sar][Sar][NMeCha][Sar][hPhe(3-Cl-4-CF3)]P[Ac5c][NMeChg][NMeD]-Pyrrolidide; lactam N-11)", "IC50": "≤ 20"}, {"smiles": "CC[C@H](C)[C@@H]1NC(=O)[C@H](CC(C)C)N(C)C(=O)C[C@@H](C(=O)N2CCCCC2)N(C)C(=O)[C@H](C2CCCC2)N(C)C(=O)C2(CCCC2)NC(=O)[C@@H]2CCCN2C(=O)[C@H](CCc2ccc(C(F)(F)F)c(OC)c2)NC(=O)CN(C)C(=O)[C@H](CC2CCCCC2)N(C)C(=O)[C@@H]2CCN2C(=O)[C@H](C)N(C)C1=O", "note": "[Compound 2080] ([NMeL]I[NMeA][Aze][NMeCha][Sar][hPhe(3-OMe-4-CF3)]P[Ac5c][NMeGly(cPent)][NMeD]-Piperidide; lactam N-11 (inferred); C-terminus assumed)", "IC50": "≤ 20"}]}]}
